Test results: patent US5089479A, “Adhesion of Mycoplasma pneumoniae and Mycoplasma hominus to sulfatide” (priority 1988, dated 1992)
“Also recorded” adds a separate entry of the source.

System: M. pneumoniae
Test: Mycoplasma overlay assay: binding of [3H]-M. pneumoniae to glycolipids on thin layer chromatograms
Parameters: species or system Mycoplasma pneumoniae strain M129
Conditions: for Binding (ability to bind M. pneumoniae): Table I, class by amount of lipid bound; for binding of M. pneumoniae to glycolipid (in words): thin layer chromatogram overlay
Protocol: Virulent M. pneumoniae strain M129, passage 5-15, were grown and metabolically labelled with [^3 H]palmitic acid, 12-17 Ci/mole, as described by Chandler et al. in Infect. Immun. 37: 942, 1982. The organisms were passed four times through a 26 gauge needle and suspended to approximately 10^7 cpm/ml of degassed RPMI 1640 medium containing 1% bovine serum albumin and 25 mM HEPES, pH 7.3.
M. pneumoniae were bound to glycolipids separated on thin-layer chromatograms as described in detail for other bacteria by Krivan et al., Proc. Natl. Acad. Sci. 85: 6157-6161, 1988, and Krivan et al., Arch. Biochem. Biophys. 260:493-496, 1988. Briefly, glycolipids were separated by thin-layer chromatography on aluminum-backed silica gel high-performance plates developed with chlooform:methanol:0.25% CaCl2 in water (60:35:8). After chromatography, the plates were coated with 0.1% polyisobutylmethacrylate, soaked in 0.05 M Tris-HCl, pH 7.6, containing […] sodium chloride, 5 mM CaCl2, 0.2 mM phenylmethane-sulfonyl fluoride, and 1% bovine serum albumin (TBS-BSA) and incubated for three hours at 25° C. with 60 μl/cm^2 of [^3 H]-labelled M. pneumoniae, approximately 10^7 cpm/ml of RPMI-BSA. The plates were gently washed five times in 0.01 M sodium phosphate, pH 7.2, containing 0.15 M sodium chloride (PBS) to remove unbound organisms, dried, and exposed for 24 hours to Ultrofilm ^3 H (2208-190) high speed film.
To obtain the results shown in FIG. 1, glycolipids were chromatographed on aluminum-backed silica gel HPTLC plates developed in chloroform/methanol/0.25% CaCl2 in water, 60:35:8. The plates were coated with plastic, soaked in Tris-BSA, and incubated for three hours at 25° C. with [^3 H]-palmitate-labelled M. pneumoniae suspended in RPMI 1640 containing 1% BSA and 25 mM HEPES, pH 7.3, as described above (Panel A), or sprayed with orcinol reagent to identify glycolipids (Panel B). Lane a, acidic glycolipid standards sulfatide (0.5 μg), GM3 (2 μg), GM2 (2 μg), GD1a (2 μg), GD1b (2 μg), GT1b (2 μg); lane b, neutral standards galactosyl ceramide (4 μg), lactosylceramide (4 μg), globotriaosylceramide (2 μg), c2(0.5 μg). and c3 (o.1 μg); lane d, seminolipid (2 μg); lane e, cholesterol 3 -sulfate (2 μg); lane f, human trachea acidic glycolipids from 100 mg wet weight […]; lane h, α2-3sialylparagloboside (2 μg); lane 1, I-active monosialylganglioside from bovine erythrocytes (2 μg).

| Substance | Binding (ability to bind M. pneumoniae) | binding of M. pneumoniae to glycolipid (in words) | other results |
| --- | --- | --- | --- |
| Asialo GM1 | - (no binding to 4 μg of lipid) |  |  |
| α2-3-sialyl-paragloboside (NeuAc) [Sialylparagloboside] | - (no binding to 4 μg of lipid) | No binding was detected |  |
| α2-3-sialyllactoneohexaosylceramide [Sialylneolacto-hexaoslycer] | - (no binding to 4 μg of lipid) |  |  |
| Galactosyl ceramide-I6-sulfate [Sulfatide Gal(6SO4)β11Cer] | +++ (positive binding to less than 0.5 μg) |  | binding of M. pneumoniae to glycolipid (in words) (listed as 6-sulfate isomer): does not discriminate between galactosyl ceramide I^3 -sulfate and its unnatural 6-sulfate isomer; binding of M. pneumoniae to glycolipid (in words) (listed as isomer of sulfatide in which the terminal sulfate is linked to the 6-position of): bound |
| GT1b | - (no binding to 4 μg of lipid) | No binding was detected |  |
| Lactoisooctaosylceramide [I-active Lacto- isooctaosylcer] | - (no binding to 4 μg of lipid) |  |  |
| Lactosylceramide-II^3 -sulfate [Lactosylsulfatide] | +++ (positive binding to less than 0.5 μg) |  | binding of M. pneumoniae to glycolipid (in words) (listed as lactosyl sulfatide): bound; binding of M. pneumoniae to glycolipid (in words) (listed as lactosylsulfatide): bound strongly |
| GD1^b | - (no binding to 4 μg of lipid) | No binding was detected |  |
| Lacto-N-triaosylceramide [Lacto- --N-triaosylcer] |  | weakly |  |
| Alpha2-3-sialylparagloboside (NeuGc) | - (no binding to 4 μg of lipid) |  |  |
| IV^3 GalnLcOse4Cer [α-Galactosylparagloboside] | + (2-4 μg) |  | binding of M. pneumoniae to glycolipid (in words) (listed as o-galactosylparagloboside): weakly |
| α-Ga121actoisooctaosylceramide [I-active Gal2 - lactoisooctaosylcer] | - (no binding to 4 μg of lipid) |  |  |
| β-galactosylalkylacylglycerol-I^3 -sulfate [Seminolipid] | +++ (positive binding to less than 0.5 μg) | bound strongly; also recorded: bound |  |
| IV^3 -[3'SO3 GlcA]- nLcOse4Cer [SO4 -Glucuronosylparagloboside] | - (no binding to 4 μg of lipid) | does not bind |  |
| GD1a | - (no binding to 4 μg of lipid) | No binding was detected |  |
| sialyllactofucopentaosyl-(III)-ceramide [Sialylneolactofucopenta-osylcer] | - (no binding to 4 μg of lipid) |  |  |
| glucosylceramide [Glucosylcer (CMH)] | + (2-4 μg) | weakly |  |
